The values that follow come from US10696693B2, “Fused imidazole derivatives as TGF-beta inhibitors” (Rigel Pharmaceuticals, Inc., priority 2014, dated 2020).

The structures appear in SMILES notation. Where two headings read alike, the source gives them in different places.

Assay [1] relates to TGF-β. Nature of the assay: AlphaScreen SureFire p-SMAD3 (Ser423/425) assay, TGF-β-stimulated cells. The conditions noted are these: Mus musculus. In kind it is cell-based. An excerpt:
(§1) The p-SMAD-3 (Ser423/425) SureFire® assay has been designed to measure the phosphorylation of endogenous cellular p-SMAD-3 (Ser423/425) in cell lysates and is a system for the screening of both modulators of receptor activation (e.g. agonists and antagonists) as well as agents acting intracellularly, such as small molecule inhibitors of upstream events. The assay will measure p-SMAD-3 (Ser423/425) activation by either cloned or endogenous receptors, and can be applied to primary cells.
(§2) 96-well Assay Protocol for 293FT and RMS13 adherent cells can be carried out manually or in high throughput with liquid handling robots.
(§3) The cells (80 μL of cells for 96 well plates) were plated in collagen coated tissue culture plates in RPMI or FreeStyle medium (Invitrogen) and incubated overnight. For manual analysis, 6 plates for GDF8, 6 plates for TGFβ, and optionally 6 plates for Alk5ca(ALK5 constitutively active) were used.
(§4) The compound dilution plates were prepared as follows: 12 μL of DMSO was transferred into first column of 96-well plate, and 16 μL of DMSO was transferred into columns 2-12 of the 96-well plate. 12 μL of compound solution was transferred into first column of the DMSO-containing 96-well plate. Three-fold dilution was performed up to column 10 of the DMSO-containing 96-well plate.
(§5) The plate containing cells were treated with compounds for about 10 minutes, and then ligand was added. GDF8 or TGFb was added to plates to stimulate. 293FL cells were stimulatedfor 90 minutes at 37° C.; and RMS13 cells were stimulated for 60 minutes at 37° C. The medium was then removed from the cells, and 1× Lysis Buffer (about 25 μL) was added and the plate was gently agitated on plate shaker for 5-10 minutes.
(§6) The lysate (5 μL) was then placed into 384-well shallow plates avoiding the generation of bubbles. To this, the Reaction Buffer+Activation Buffer+AlphaScreen® Acceptor beadsmixture (5 μL) was added. The plate was sealed with adhesive cover and shielded from light (e.g., with metal foil), and agitated gently on plate shaker for 2 hours at room temperature.
(§7) Dilution buffer+AlphaScreen® Donor beads (2 μL) was then added, and the plate was intubated on the plate shaker for an additional 1½ hours. After completion, the plate was read on Synergy-4 or Enspire plate reader, using AlphaScreen® pSMAD3® settings.
(§8) Representative results for inhibition of GDF8 (data=GDF pSMAD (MPC11) (μM)) and TGF-β (data=TGF-β pSMAD (MPC-11) (μM)) signaling are shown in Table 1(A=<0.05 μM, B=0.05−<0.1 μM, C=0.1−<1.0 μM, D=>1.0 μM): […]
A general note: Bead proximity is the source of the signal in Alpha formats.

Assay [2] concerns GDF8. The experiment in a line: AlphaScreen SureFire p-SMAD3 (Ser423/425) assay, GDF8-stimulated cells. It counts as cell-based. The conditions noted are these: Mus musculus.
Source text: as §1, §2, §3, §4, §5, §6, §7, §8

The mark [3] stands for this setting: MPC-11, read-out: TGF-β: inhibition of TGF-β signaling, TGF-β pSMAD (MPC-11), p-SMAD3 (Ser423/425) AlphaScreen in cell lysate, TGF-β stimulation.
[4] abbreviates: MPC-11, read-out: GDF8: inhibition of GDF8 signaling, GDF pSMAD (MPC11), p-SMAD3 (Ser423/425) AlphaScreen in cell lysate, GDF8 stimulation.
Where [5] appears, read: p-SMAD3 (Ser423/425) AlphaScreen in cell lysate, MPC-11, TGF-β stimulation, read-out: TGF-β: inhibition of TGF-β signaling, TGF-β pSMAD (MPC-11).
Where [6] appears, read: MPC-11, p-SMAD3 (Ser423/425) AlphaScreen in cell lysate, MPC11, GDF8 stimulation, read-out: GDF8: inhibition of GDF8 signaling, GDF pSMAD (MPC11).

With `CCOC(=O)C1CCC2(CC1)Cc1nc(-c3ccc(F)cc3)c(-c3ccc4nccnc4c3)n1C2` (centres unmarked) [Compound 333, Ethyl 2′-(4-fluorophenyl)-3′-(quinoxalin-6-yl)-5′H,7′H-spiro[cyclohexane-1,6′-pyrrolo[1,2-a]imidazole]-4-carboxylate], the IC50 in assay [1] (setting [3]) and in assay [2] (setting [4]) was above 1000 nM in each case.

In the case of `Cc1cc(-c2nc3n(c2-c2ccc4ncsc4c2)CCC3)cc(C)c1F` [Compound 277, 6-(2-(4-fluoro-3,5-dimethylphenyl)-6,7-dihydro-5H-pyrrolo[1,2-a]imidazol-3-yl)benzo[d]thiazole], the IC50 in assay [1] (setting [5]) and in assay [2] (setting [6]) was above 1000 nM in each case.

Turning to `Fc1ccc(-c2nc3occn3c2-c2ccc3nccnc3c2)c(F)c1` [Compound 157, 6-(2,4-difluorophenyl)-5-(quinoxalin-6-yl)imidazo[2,1-b]oxazole], the IC50 in assay [1] (setting [5]) and in assay [2] (setting [6]) was 100 to 1000 nM each time.

Regarding `Cc1cc(-c2nc3n(c2-c2ccc4[nH]ncc4c2)CCC3)cc(C)c1Cl` [Compound 243, 5-(2-(4-chloro-3,5-dimethylphenyl)-6,7-dihydro-5H-pyrrolo[1,2-a]imidazol-3-yl)-1H-indazole], the IC50 in assay [1] (setting [5]) and in assay [2] (setting [6]) was above 1000 nM throughout.

`Cc1ccc(F)cc1-c1nc2n(c1-c1ccc3[nH]ncc3c1)CCC2` [Compound 300, 5-(2-(5-fluoro-2-methylphenyl)-6,7-dihydro-5H-pyrrolo[1,2-a]imidazol-3-yl)-1H-indazole]: the IC50 in assay [1] (setting [3]) and in assay [2] (setting [4]) was above 1000 nM throughout.

For `Cc1c(F)ccc(-c2nc3n(c2-c2ccc4ncnn4c2)CCC3)c1F` [Compound 45, 6-(2-(2,4-difluoro-3-methylphenyl)-6,7-dihydro-5H-pyrrolo[1,2-a]imidazol-3-yl)-[1,2,4]triazolo[1,5-a]pyridine], the IC50 in assay [1] (setting [5]) and in assay [2] (setting [6]) was 100 to 1000 nM each time.

Take `Fc1cc(F)cc(-c2nc3n(c2-c2ccc4ncsc4c2)CCC3)c1` [Compound 232, 6-(2-(3,5-difluorophenyl)-6,7-dihydro-5H-pyrrolo[1,2-a]imidazol-3-yl)benzo[d]thiazole]: the values for the IC50 in assay [1] (setting [3]) and in assay [2] (setting [4]) were above 1000 nM and 100 to 1000 nM, respectively.

For the molecule `Cc1ccccc1-c1nc2n(c1-c1ccc3ncnn3c1)CCC2` [Compound 62, 6-(2-(2-methylphenyl)-6,7-dihydro-5H-pyrrolo[1,2-a]imidazol-3-yl)-[1,2,4]triazolo[1,5-a]pyridine], the IC50 in assay [1] (setting [3]) and in assay [2] (setting [4]) was above 1000 nM each time.

On to `Cc1cc(F)ccc1-c1nc2n(c1-c1ccc3ncnn3c1)CCC2` [Compound 54, 6-(2-(4-fluoro-2-methylphenyl)-6,7-dihydro-5H-pyrrolo[1,2-a]imidazol-3-yl)-[1,2,4]triazolo[1,5-a]pyridine], for which the IC50 is above 1000 nM in assay [1] (setting [5]) and 100 to 1000 nM in assay [2] (setting [6]).

For `OCC1Cn2c(nc(-c3cc(F)cc(F)c3F)c2-c2ccc3ncccc3c2)N1` (centres unmarked) [Compound 123, (5-(quinolin-6-yl)-6-(2,3,5-trifluorophenyl)-2,3-dihydro-1H-imidazo[1,2-a]imidazol-2-yl)methanol], the results for the IC50 in assay [1] (setting [5]) and in assay [2] (setting [6]) were 100 to 1000 nM and 50 to 100 nM, respectively.

As for `Cc1ccc(-c2nc3n(c2-c2ccc4ncccc4c2)CCC3)c(F)c1F` [Compound 251, 6-(2-(2,3-difluoro-4-methylphenyl)-6,7-dihydro-5H-pyrrolo[1,2-a]imidazol-3-yl)quinoline], the IC50 in assay [1] (setting [5]) and in assay [2] (setting [6]) was above 1000 nM each time.

For `Cc1c(F)ccc(-c2nc3n(c2-c2ccc4nccnc4c2)CCC3)c1C` [Compound 330, 6-(2-(4-fluoro-2,3-dimethylphenyl)-6,7-dihydro-5H-pyrrolo[1,2-a]imidazol-3-yl)quinoxaline], the IC50 in assay [1] (setting [3]) and in assay [2] (setting [4]) was above 1000 nM each time.

Take `Fc1ccc(-c2nc3occn3c2-c2ccc3nccn3c2)c(F)c1` [Compound 159, 6-(2,4-difluorophenyl)-5-(imidazo[1,2-a]pyridin-6-yl)imidazo[2,1-b]oxazole]: the values for the IC50 in assay [1] (setting [5]) and in assay [2] (setting [6]) were 50 to 100 nM and below 50 nM, respectively.

In the case of `Fc1ccc(-c2nc3n(c2-c2ccc4nnc(C(F)(F)F)n4c2)CCC3)c(F)c1F` [Compound 35], the IC50 in assay [1] (setting [5]) and in assay [2] (setting [6]) was above 1000 nM in each case.

Turning to `Cc1cc(-c2nc3n(c2-c2ccc4nccnc4c2)CCC3)c(F)cc1Cl` [Compound 254, 6-(2-(4-chloro-2-fluoro-5-methylpheny)-6,7-dihydro-5H-pyrrolo[1,2-a]imidazol-3-yl)quinoxaline], the IC50 in assay [1] (setting [5]) and in assay [2] (setting [6]) was above 1000 nM in each case.

Regarding `Cc1cc(-c2nc3n(c2-c2ccc4nccn4c2)CCC3)c(F)cc1F` [Compound 39, 6-(2-(2,4-difluoro-5-methylphenyl)-6,7-dihydro-5H-pyrrolo[1,2-a]imidazol-3-yl)imidazo[1,2-c]pyridine], the results for the IC50 in assay [1] (setting [5]) and in assay [2] (setting [6]) were 50 to 100 nM and below 50 nM, respectively.

For `Fc1cc(F)c(-c2nc3n(c2-c2ccc4nccn4c2)CCN3)cc1F` [Compound 108, 6-(6-(2,4,5-trifluorophenyl)-2,3-dihydro-1H-imidazo[1,2-a]imidazol-5-yl)imidazo[1,2-a]pyridine], the IC50 in assay [1] (setting [5]) and in assay [2] (setting [6]) was below 50 nM in each case.

`COc1cccc(-c2nc3n(c2-c2ccc4nccn4c2)CCC3)c1` [Compound 5]: the IC50 in assay [1] (setting [5]) and in assay [2] (setting [6]) was 100 to 1000 nM each time.

Consider `Fc1cccc(F)c1-c1nc2n(c1-c1ccc3ncccc3c1)CCC2` [Compound 216, 6-(2-(2,6-difluorophenyl)-6,7-dihydro-5H-pyrrolo[1,2-a]imidazol-3-yl)quinoline], for which the IC50 in assay [1] (setting [5]) and in assay [2] (setting [6]) was above 1000 nM throughout.

For the molecule `Cc1ccc(F)cc1-c1nc2n(c1-c1ccc3ncccc3c1)CCC2` [Compound 303], the IC50 in assay [1] (setting [5]) and in assay [2] (setting [6]) was above 1000 nM each time.

Consider `OCC1CCC2(CC1)Cc1nc(-c3ccc(F)cc3)c(-c3ccc4ncnn4c3)n1C2` (centres unmarked) [Compound 75, (3′-([1,2,4]triazolo[1,5-a]pyridin-6-yl)-2′-(4-fluorophenyl)-5′H,7′H-spiro[cyclohexane-1,6′-pyrrolo[1,2-a]imidazol]-4-yl)methanol], for which the IC50 in assay [1] (setting [3]) and in assay [2] (setting [4]) was above 1000 nM each time.

`Fc1cc(F)c(F)c(-c2nc3n(c2-c2cc4cnccc4s2)CCC3)c1` [Compound 98, 2-(2-(2,3,5-trifluorophenyl)-6,7-dihydro-5H-pyrrolo[1,2-a]imidazol-3-yl)thieno[3,2-c]pyridine]: the IC50 in assay [1] (setting [5]) and in assay [2] (setting [6]) was 100 to 1000 nM throughout.

`Fc1ccc(-c2nc3occn3c2-c2ccc3nccnc3c2)cc1F` [Compound 136, 6-(3,4-difluorophenyl)-5-(quinoxalin-6-yl)imidazo[2,1-b]oxaole]: the IC50 in assay [1] (setting [5]) and in assay [2] (setting [6]) was 100 to 1000 nM in each case.

Regarding `Cc1ccc(F)cc1-c1nc2n(c1-c1ccc3ncsc3c1)CCC2` [Compound 301, 6-(2-(5-fluoro-2-methylphenyl)-6,7-dihydro-5H-pyrrolo[1,2-a]imidazol-3-yl)benzo[d]thiazole], the results for the IC50 in assay [1] (setting [3]) and in assay [2] (setting [4]) were above 1000 nM and 100 to 1000 nM, respectively.

With `Fc1ccc(-c2nc3occn3c2-c2ccc3ncccc3c2)c(F)c1` [Compound 158, 5-(quinolin-6-yl)-6-(2,4-difluorophenyl)imidazo[2,1-b]oxazole], the IC50 in assay [1] (setting [5]) is 50 to 100 nM; in assay [2] (setting [6]), below 50 nM.

With `Fc1ccc(-c2nc3n(c2-c2ccc4ncnn4c2)CCC3)c(F)c1Cl` [Compound 81, 6-(2-(3-chloro-2,4-difluorophenyl)-6,7-dihydro-5H-pyrrolo[1,2-a]imidazol-3-yl)-[1,2,4]triazolo[1,5-a]pyridine], the IC50 in assay [1] (setting [3]) and in assay [2] (setting [4]) was 100 to 1000 nM each time.

On to `Cc1cccc(-c2nc3n(c2-c2ccc4ncsc4c2)CCC3)n1` [Compound 364, 6-(2-(6-methylpyridin-2-yl)-6,7-dihydro-5H-pyrrolo[1,2-a]imidazol-3-yl)benzo[d]thiazole], for which, in assay [1] (setting [3]), the IC50 was below 50 nM.
